Tests used:
[1] = system: neuropathic pain induced by separate L5 spinal nerve ligation (SNL); test: Mechanical pain threshold (MWT) in the L5 spinal nerve ligation (SNL) model of neuropathic pain, with synergy analysis (Jin Zhengjun q, CompuSyn CI); format: in vivo, Sprague-Dawley (SD) rats; conditions: Mean ± SEM
[2] = system: neuropathic pain induced by separate L5 spinal nerve ligation (SNL); test: as above; format: in vivo, Sprague-Dawley (SD) rats; conditions: Example 1, Mean ± SEM
Experimental: In this experiment, the model of neuropathic pain induced by separate L5 spinal nerve ligation (SNL) was adopted. Animals were anesthetized with 7% chloral hydrate (dosage: 420 mg/kg, intraperitoneal injection), and the limbs of rats were fixed in a prone position. The rats were placed under dissecting microscope with the back hair-cut off, then wiped and disinfected with alcohol. An incision about 2-3 cm long was cut on the right side of the dorsal spine, and the two spinal nerves L4 and L5 were exposed, the spinal nerve L5 was lightly ligated with 6-0 braided line to avoid damage to the contiguous spinal nerves. Double-layer suture was performed on the back incisions of the experimental animals, and disinfected with iodophor, then the experimental animals were gently put into a feeding cage, allowed to free access to movement, eating and drinking.
Mechanical withdrawal threshold (MWT) of all experimental animals was measured by mechanical automatic stimulated needle. The experimental animals were placed in a transparent plexiglass box with iron gauze at the bottom, and after acclimatization for 30 minutes, the vola of the hind limbs of the experimental animals were stimulated with a stimulated needle at a uniform speed, and the reaction threshold when rats rapidly retracted or shook their feet was recorded (as MWT), which was the mechanical pain threshold of the animals.
The basic mechanical pain threshold of each experimental animal was measured for 2 days […], and the basic mechanical pain threshold of experimental animals was the average of two values. […]
The L5-SNL model was prepared by selecting SD rats with appropriate weight, and the measurement of postoperative mechanical pain threshold was started at least 7 days after modeling. […] The experimental model animals were administered corresponding drugs or solvents, and the mechanical pain threshold of animals was measured at 0.5 h and 3 h after administration. […]

[3] = Example 1, 0.5 mg/kg intraperitoneal
[4] = Example 2, 1 mg/kg intraperitoneal
[5] = Example 2, 20 mg/kg intraperitoneal
[6] = Example 3, 3 mg/kg intraperitoneal
[7] = Example 3, 18 mg/kg intraperitoneal
[8] = Example 3, 30 mg/kg intraperitoneal
[9] = Example 4, 3 mg/kg intraperitoneal
[10] = Example 4, 9 mg/kg intraperitoneal
[11] = Example 4, 18 mg/kg intraperitoneal
[12] = Example 5, 3 mg/kg intraperitoneal
[13] = Example 5, 6 mg/kg intraperitoneal
[14] = Example 5, 9 mg/kg intraperitoneal
[15] = Example 6, 6 mg/kg intraperitoneal
[16] = Example 2, 10 mg/kg intraperitoneal
[17] = Example 3, 12 mg/kg intraperitoneal
[18] = Example 4, 6 mg/kg intraperitoneal
[19] = Example 4, 12 mg/kg intraperitoneal
[20] = Example 6, 7.5 mg/kg intraperitoneal
[21] = Example 6, 10 mg/kg intraperitoneal

In the case of `CC(C)C[C@H](CN)CC(=O)O` [pregabalin, (S)-3-aminomethyl-5-methylhexanoic acid], the “pain threshold at 0.5 h after administration” value (“pain threshold at 0.5 h” below) [1, 3] is reported as 15.48 ± 1.27 g, the “pain threshold at 3 h after administration” value (shortened to “pain threshold at 3 h”) [1, 3] is reported as 15.54 ± 1.15 g and the “pain threshold at 3 h” value ([1]; Example 1, 25 mg/kg intraperitoneal) is reported as 24.65 ± 0.34 g. For the same compound, the “pain threshold at 0.5 h” value [1, 4] was 15.57 ± 1.04 g, the “pain threshold at 3 h” value [1, 4] was 15.68 ± 1.32 g and the “pain threshold at 0.5 h” value [1, 5] was 17.04 ± 0.54 g. For the same compound, the “pain threshold at 3 h” value [1, 5] was 24.76 ± 0.73 g, the “pain threshold at 0.5 h” value [1, 6] was 15.19 ± 1.31 g and the “pain threshold at 3 h” value [1, 6] was 16.75 ± 1.14 g. The “pain threshold at 0.5 h” value [1, 7] was 16.36 ± 1.35 g, the “pain threshold at 3 h” value [1, 7] was 23.92 ± 1.30 g and the “pain threshold at 0.5 h” value [1, 8] was 18.05 ± 0.73 g. For the same compound, the “pain threshold at 3 h” value [1, 8] was 26.13 ± 0.91 g, the “pain threshold at 0.5 h” value [1, 9] was 15.24 ± 0.95 g and the “pain threshold at 3 h” value [1, 9] was 16.96 ± 1.22 g. The “pain threshold at 0.5 h” value [1, 10] was 15.03 ± 1.21 g, the “pain threshold at 3 h” value [1, 10] was 21.13 ± 1.13 g and the “pain threshold at 0.5 h” value [1, 11] was 16.26 ± 0.74 g. For the same compound, the “pain threshold at 3 h” value [1, 11] was 24.54 ± 0.56 g, the “pain threshold at 0.5 h” value [1, 12] was 15.35 ± 0.57 g and the “pain threshold at 3 h” value [1, 12] was 16.73 ± 1.15 g. The “pain threshold at 0.5 h” value [1, 13] was 15.24 ± 1.15 g, the “pain threshold at 3 h” value [1, 13] was 19.15 ± 1.21 g and the “pain threshold at 0.5 h” value [1, 14] was 15.78 ± 0.83 g. The “pain threshold at 3 h” value [1, 14] was 21.66 ± 0.79 g, the “pain threshold at 0.5 h” value [1, 15] was 17.39 ± 1.26 g and the “pain threshold at 3 h” value [1, 15] was 19.62 g. The “pain threshold at 6 h after administration” value (shortened to “pain threshold at 6 h”) [1, 15] was 19.49 g, the “pain threshold at 8 h after administration” value (shortened to “pain threshold at 8 h”) [1, 15] was 19.26 g and the “pain threshold at 0.5 h” value ([1]; Example 6, 20 mg/kg intraperitoneal) was 17.53 ± 1.33 g. The “pain threshold at 0.5 h” value ([1]; Example 6, 30 mg/kg intraperitoneal) was 18.65 ± 1.24 g and the “pain threshold at 0.5 h” value ([2]; 25 mg/kg intraperitoneal) was 17.41 ± 0.58 g.

`Nc1nc2ccc(OC(F)(F)F)cc2s1` [riluzole] was tested, and the “pain threshold at 0.5 h” value [1, 3] was 14.25 ± 0.90 g, the “pain threshold at 3 h” value ([1]; Example 1, 10 mg/kg intraperitoneal) was 19.87 ± 0.92 g and the “pain threshold at 0.5 h” value [1, 4] was 14.08 ± 0.92 g. The “pain threshold at 3 h” value [1, 4] was 14.01 ± 0.99 g, the “pain threshold at 0.5 h” value [1, 16] was 21.79 ± 1.33 g and the “pain threshold at 3 h” value [1, 16] was 20.63 ± 1.12 g. The “pain threshold at 0.5 h” value [1, 6] was 15.48 ± 0.92 g, the “pain threshold at 3 h” value [1, 6] was 15.16 ± 1.31 g and the “pain threshold at 0.5 h” value [1, 17] was 22.54 ± 1.33 g. The “pain threshold at 3 h” value [1, 17] was 21.69 ± 1.12 g, the “pain threshold at 0.5 h” value [1, 9] was 15.43 ± 0.69 g and the “pain threshold at 3 h” value [1, 9] was 15.03 ± 0.79 g. For the same compound, the “pain threshold at 0.5 h” value [1, 18] was 18.47 ± 0.37 g, the “pain threshold at 3 h” value [1, 18] was 17.47 ± 0.73 g and the “pain threshold at 0.5 h” value [1, 19] was 22.54 ± 1.33 g. The “pain threshold at 3 h” value [1, 19] was 21.69 ± 1.12 g, the “pain threshold at 0.5 h” value [1, 12] was 15.35 ± 0.58 g and the “pain threshold at 3 h” value [1, 12] was 14.98 ± 0.84 g. The “pain threshold at 0.5 h” value [1, 13] was 18.21 ± 0.47 g, the “pain threshold at 3 h” value [1, 13] was 17.45 ± 0.46 g and the “pain threshold at 0.5 h” value [1, 15] was 22.96 g. The “pain threshold at 3 h” value [1, 15] was 15.74 ± 0.93 g, the “pain threshold at 6 h” value [1, 15] was 15.08 ± 0.77 g and the “pain threshold at 8 h” value [1, 15] was 14.95 ± 0.81 g. For the same compound, the “pain threshold at 3 h” value [1, 20] was 16.44 ± 1.07 g, the “pain threshold at 6 h” value [1, 20] was 16.52 ± 1.06 g and the “pain threshold at 8 h” value [1, 20] was 15.49 ± 1.18 g. The “pain threshold at 3 h” value [1, 21] was 17.89 ± 1.16 g, the “pain threshold at 6 h” value [1, 21] was 17.46 ± 1.23 g and the “pain threshold at 8 h” value [1, 21] was 16.93 ± 1.15 g. The “pain threshold at 3 h” value ([2]; 0.5 mg/kg intraperitoneal, 3 h) was 14.04 ± 0.91 g and the “pain threshold at 0.5 h” value ([2]; 10 mg/kg intraperitoneal) was 21.56 ± 1.24 g.

Reference: US20240335407A1, “PHARMACEUTICAL COMPOSITION AND USE THEREOF” (NEURODAWN PHARMACEUTICAL CO., LTD., priority 2021, published 2024)
